Activity calls are given as the source filed them. Cut-off read from the data, not from the text of the source: actives have a measured EC50 and inactives only a lower limit. Bounds are passed on as bounds.

The first experiment deals with Streptococcus. Briefly: GAS UMAA2166 growth inhibition – luminescence, BacTiterGlo, counter-screen for streptokinase expression inhibitor project, dose response (AID 1915).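 Note: potency for reduction of bacterial viability or growth.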 Type of experiment: functional, organism-based.
Take `Oc1cccc(NC(=S)N=Nc2c(O)[nH]c3ccc(Br)cc23)c1`: the EC50 (as a rule, the concentration giving half of the maximal effect) was 4.54 µM (active).

`CCOC(=O)c1ccc(NC(S)=NN)cc1`: the EC50 is recorded as > 150 µM (not active).

In the case of `Cc1cc(N/N=C/c2ccccc2O)nc(-c2ccccc2O)n1`, the EC50 is 2.9 µM (active).

System in a further experiment: not listed separately
Briefly: Trypanosoma cruzi growth suppression in host cells – NIH3T3 host cells, beta-gal luminescence, confirmation (AID 2044).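 Note: intracellular parasites grown in NIH/3T3 mouse fibroblasts as host cells; luminescent beta-galactosidase reporter signal from transgenic T. cruzi replicating inside host cells; inhibitors lower the luminescence signal.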 Format: functional, cell-based.
As for `O=C(CNCCc1ccc(Cl)cc1)Nc1ccc(C(=O)N2CCCCC2)cc1`, the EC50 is 0.502 µM (active).

Regarding `CC1(C)CC2CC(C)(CN2S(=O)(=O)c2ccc(C(=O)Nc3ccc(Cl)c(S(=O)(=O)N4CCOCC4)c3)cc2)C1` (centres undefined), the EC50 is 2.22 µM (active).

Take `COc1ccc(CC(C)N2CCN(Cc3ccccc3)CC2)c(OC)c1` (centres undefined): the EC50 was 0.502 µM (active).

As for `CN1CCN(CC(=O)C23CC4CC(CC(C4)C2)C3)CC1`, the EC50 is 0.225 µM (active).

For the compound `Cc1cc(C)c(S(=O)(=O)c2cc(F)ccc2C)c(Cl)n1`, the EC50 is 1.39 µM (active).

Consider `CCCCOc1ccc(C(=O)CCN2CCOCC2)cc1`, for which the EC50 is 0.836 µM (active).

With `CC(C)(C)c1cc(C(=O)NCCN2CCCC2)cc(C(C)(C)C)c1`, the EC50 was 4.49 µM (active).

`COc1ccc(NC(=O)CCN2CCN(C/C=C/c3ccccc3)CC2)cc1`: the EC50 is 0.686 µM (active).

Consider `Cc1ccc(-c2cc(C(F)F)n3ncc(C(=O)N4CCCCC4c4cccnc4)c3n2)cc1` (centres undefined), for which the EC50 was 0.708 µM (active).

Regarding `Fc1ccccc1C1c2[nH]c3ccccc3c2CCN1Cc1cccn1-c1ncccn1` (centres undefined), the EC50 is 1.07 µM (active).

For `COc1cc(OC)cc(C(=O)NC(=S)N2CCCCC2c2cccnc2)c1` (centres undefined), the concentration giving a half-maximal response (EC50) is 0.769 µM (active).

Consider `O=C(c1cc([N+](=O)[O-])cc([N+](=O)[O-])c1)N1CCN(Cc2ccc3c(c2)OCO3)CC1`, for which the EC50 was 0.306 µM (active).

For `CCc1ccc(OCCCCN(C)Cc2ccccc2)cc1`, the EC50 was 0.213 µM (active).

Turning to `O=C1CC(NS(=O)(=O)c2ccc([N+](=O)[O-])cc2)CN1c1cccc(F)c1` (centres undefined), the EC50 was 1.08 µM (active).

For `COCc1cc(CN2CCCC(C(=O)c3cccc(C(F)(F)F)c3)C2)ccc1OC` (centres undefined), the EC50 was 0.1 µM (active).

In the case of `O=C(CSc1nnnn1-c1ccc(O)cc1)N1N=C(c2ccc3ccccc3c2)CC1c1ccccc1` (centres undefined), the EC50 was 2.08 µM (active).

Consider `CCCOc1ccc(-c2nc(SCc3ccccc3)nc(O)c2C#N)cc1OC`, for which the EC50 is 3.11 µM (active).

On to `CC(NC(=O)c1cccc(Cn2cc([N+](=O)[O-])cn2)c1)c1ccc(C(C)(C)C)cc1` (centres undefined), for which the EC50 is 2.59 µM (active).

Consider `O=C(N/N=C\c1ccc(F)cc1)c1ccc(Cn2cc(Br)c([N+](=O)[O-])n2)o1`, for which the EC50 was 0.761 µM (active).

System in another experiment: not listed separately
Briefly: NIH3T3 cell viability loss – ATP luminescence, mouse fibroblasts, counter-screen, dose response (AID 2010).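 Note: cells exposed to compound for about 90 hours before reading.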 Format: functional, cell-based.
In the case of `O=C(CNCCc1ccc(Cl)cc1)Nc1ccc(C(=O)N2CCCCC2)cc1`, the EC50 is listed as > 60 µM (not active).

With `CC1(C)CC2CC(C)(CN2S(=O)(=O)c2ccc(C(=O)Nc3ccc(Cl)c(S(=O)(=O)N4CCOCC4)c3)cc2)C1` (centres undefined), the EC50 is 21.6 µM (active).

On to `COc1ccc(CC(C)N2CCN(Cc3ccccc3)CC2)c(OC)c1` (centres undefined), for which the EC50 was > 30 µM (not active).

For `CN1CCN(CC(=O)C23CC4CC(CC(C4)C2)C3)CC1`, the EC50 is recorded as > 30 µM (not active).

For the compound `Cc1cc(C)c(S(=O)(=O)c2cc(F)ccc2C)c(Cl)n1`, the EC50 is > 60 µM (not active).

For the compound `CCCCOc1ccc(C(=O)CCN2CCOCC2)cc1`, the EC50 is > 60 µM (not active).

Turning to `CC(C)(C)c1cc(C(=O)NCCN2CCCC2)cc(C(C)(C)C)c1`, the EC50 is on record as > 30 µM (not active).

Take `COc1ccc(NC(=O)CCN2CCN(C/C=C/c3ccccc3)CC2)cc1`: the EC50 was > 60 µM (not active).

With `Cc1ccc(-c2cc(C(F)F)n3ncc(C(=O)N4CCCCC4c4cccnc4)c3n2)cc1` (centres undefined), the EC50 is > 60 µM (inconclusive).

As for `Fc1ccccc1C1c2[nH]c3ccccc3c2CCN1Cc1cccn1-c1ncccn1` (centres undefined), the EC50 is > 60 µM (not active).

`COc1cc(OC)cc(C(=O)NC(=S)N2CCCCC2c2cccnc2)c1` (centres undefined): the 50% effective concentration (EC50) is listed as > 60 µM (not active).

For the compound `O=C(c1cc([N+](=O)[O-])cc([N+](=O)[O-])c1)N1CCN(Cc2ccc3c(c2)OCO3)CC1`, the EC50 was > 60 µM (not active).

`CCc1ccc(OCCCCN(C)Cc2ccccc2)cc1`: the EC50 is > 60 µM (not active).

As to `O=C1CC(NS(=O)(=O)c2ccc([N+](=O)[O-])cc2)CN1c1cccc(F)c1` (centres undefined), the EC50 is on record as > 60 µM (not active).

With `COCc1cc(CN2CCCC(C(=O)c3cccc(C(F)(F)F)c3)C2)ccc1OC` (centres undefined), the EC50 is > 60 µM (inconclusive).

Turning to `O=C(CSc1nnnn1-c1ccc(O)cc1)N1N=C(c2ccc3ccccc3c2)CC1c1ccccc1` (centres undefined), the EC50 was > 60 µM (not active).

`CCCOc1ccc(-c2nc(SCc3ccccc3)nc(O)c2C#N)cc1OC`: the EC50 is 17.8 µM (active).

On to `CC(NC(=O)c1cccc(Cn2cc([N+](=O)[O-])cn2)c1)c1ccc(C(C)(C)C)cc1` (centres undefined), for which the EC50 is > 60 µM (not active).

Turning to `O=C(N/N=C\c1ccc(F)cc1)c1ccc(Cn2cc(Br)c([N+](=O)[O-])n2)o1`, the EC50 is > 60 µM (not active).

A further experiment relates to Streptococcus sp. 'group A'. Briefly: Streptococcus pyogenes SK(-)GAS viability under kanamycin – luminescence, BacTiterGlo, confirmation, counter-screen for streptokinase expression inhibitor project, dose response (AID 1900). Format: functional, organism-based. (A counterscreen serves to expose hits that act by an unwanted route or on another target.)
Turning to `Oc1cccc(NC(=S)N=Nc2c(O)[nH]c3ccc(Br)cc23)c1`, the EC50 was 1.22 µM (active).

Turning to `CCOC(=O)c1ccc(NC(S)=NN)cc1`, the EC50 is 9.57 µM (active).

On to `Cc1cc(N/N=C/c2ccccc2O)nc(-c2ccccc2O)n1`, for which the EC50 is 0.855 µM (active).

Values taken from ChEMBL document CHEMBL1201862, “PubChem BioAssay data set” (2004).
